The series is described as follows: MALDI-TOF screening of Ni^2+ dependent hydrolysis in a combinatorial peptide library. The conditions noted are these: CH3CO-Gly-Ala-Thr-X-His-Z-Lys-Phe-Leu-NH2 library, Ni^2+ 2 mM, pH 8.2, 10 mM Tris, score=24/tm. It counts as physicochemical. The procedure, abridged:
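Ni2+ 2 mM, peptide pool 1 mM (total), 10 mM Tris pH 8.2; 37 °C and 45 °C in parallel; MS aliquots at 2/4/6/8 h; products detected visually. X: all proteinogenic residues except Asp, Glu, Cys; Z: all except Cys.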

For Ac-GATRHTKFL-NH2 [TRHT], the “hydrolysis score from MALDI-TOF screening” value (shortened to “hydrolysis score”) (37° C.) is 0 (a score of 0 if no trace of the product of hydrolysis was seen after 8 hours of incubation) and the “hydrolysis score” value (45° C.) is 0 (a score of 0 if no trace of the product of hydrolysis was seen after 8 hours of incubation).
On to Ac-GATRHVKFL-NH2 [TRHV], for which the “hydrolysis score” value runs as follows: (37° C.) 3 (a score of 3 for detection at 8 hours); (45° C.) 4 (a score of 4 for detection at 6 hours).
With Ac-GATRHWKFL-NH2 [TRHW], the “hydrolysis score” value (37° C.) was 12 (a score of 12, if it was seen to be partially hydrolysed at 2 hours) and the “hydrolysis score” value (45° C.) is reported as 12 (a score of 12, if it was seen to be partially hydrolysed at 2 hours).
Ac-GATRHYKFL-NH2 [TRHY]: the “hydrolysis score” value reads like this: (37° C.) 4 (a score of 4 for detection at 6 hours); (45° C.) 6 (a score of 6 for detection at 4 hours).
In the case of Ac-GATSHAKFL-NH2 [TSHA], the “hydrolysis score” value by setting is: (37° C.) 0 (a score of 0 if no trace of the product of hydrolysis was seen after 8 hours of incubation); (45° C.) 0 (a score of 0 if no trace of the product of hydrolysis was seen after 8 hours of incubation).
In the case of Ac-GATSHDKFL-NH2 [TSHD], the “hydrolysis score” value (37° C.) is 0 (a score of 0 if no trace of the product of hydrolysis was seen after 8 hours of incubation) and the “hydrolysis score” value (45° C.) is recorded as 0 (a score of 0 if no trace of the product of hydrolysis was seen after 8 hours of incubation).
Turning to Ac-GATSHEKFL-NH2 [TSHE], the “hydrolysis score” value is 0 (a score of 0 if no trace of the product of hydrolysis was seen after 8 hours of incubation) (37° C.) and 0 (a score of 0 if no trace of the product of hydrolysis was seen after 8 hours of incubation) (45° C.).
As for Ac-GATSHFKFL-NH2 [TSHF], the “hydrolysis score” value is, setting by setting: (37° C.) 0 (a score of 0 if no trace of the product of hydrolysis was seen after 8 hours of incubation); (45° C.) 0 (a score of 0 if no trace of the product of hydrolysis was seen after 8 hours of incubation).
On to Ac-GATSHGKFL-NH2 [TSHG], for which the “hydrolysis score” value was 0 (a score of 0 if no trace of the product of hydrolysis was seen after 8 hours of incubation) (37° C.) and 0 (a score of 0 if no trace of the product of hydrolysis was seen after 8 hours of incubation) (45° C.).
In the case of Ac-GATSHHKFL-NH2 [TSHH], the “hydrolysis score” value (37° C.) is 0 (a score of 0 if no trace of the product of hydrolysis was seen after 8 hours of incubation) and the “hydrolysis score” value (45° C.) is listed as 0 (a score of 0 if no trace of the product of hydrolysis was seen after 8 hours of incubation).
With Ac-GATSHIKFL-NH2 [TSHI], the “hydrolysis score” value was 0 (a score of 0 if no trace of the product of hydrolysis was seen after 8 hours of incubation) (37° C.) and 0 (a score of 0 if no trace of the product of hydrolysis was seen after 8 hours of incubation) (45° C.).
Consider Ac-GATSHKKFL-NH2 [TSHK], for which the “hydrolysis score” value reads like this: (37° C.) 0 (a score of 0 if no trace of the product of hydrolysis was seen after 8 hours of incubation); (45° C.) 0 (a score of 0 if no trace of the product of hydrolysis was seen after 8 hours of incubation).
On to Ac-GATSHLKFL-NH2 [TSHL], for which the “hydrolysis score” value (37° C.) is recorded as 0 (a score of 0 if no trace of the product of hydrolysis was seen after 8 hours of incubation) and the “hydrolysis score” value (45° C.) was 0 (a score of 0 if no trace of the product of hydrolysis was seen after 8 hours of incubation).
As for Ac-GATSHMKFL-NH2 [TSHM], the “hydrolysis score” value (37° C.) was 0 (a score of 0 if no trace of the product of hydrolysis was seen after 8 hours of incubation) and the “hydrolysis score” value (45° C.) is 0 (a score of 0 if no trace of the product of hydrolysis was seen after 8 hours of incubation).
For the substance Ac-GATSHNKFL-NH2 [TSHN], the “hydrolysis score” value (37° C.) is on record as 0 (a score of 0 if no trace of the product of hydrolysis was seen after 8 hours of incubation) and the “hydrolysis score” value (45° C.) is recorded as 0 (a score of 0 if no trace of the product of hydrolysis was seen after 8 hours of incubation).
For the substance Ac-GATSHPKFL-NH2 [TSHP], the “hydrolysis score” value (37° C.) is 0 (a score of 0 if no trace of the product of hydrolysis was seen after 8 hours of incubation) and the “hydrolysis score” value (45° C.) is on record as 0 (a score of 0 if no trace of the product of hydrolysis was seen after 8 hours of incubation).
With Ac-GATSHQKFL-NH2 [TSHQ], the “hydrolysis score” value reads like this: (37° C.) 0 (a score of 0 if no trace of the product of hydrolysis was seen after 8 hours of incubation); (45° C.) 0 (a score of 0 if no trace of the product of hydrolysis was seen after 8 hours of incubation).
On to Ac-GATSHRKFL-NH2 [TSHR], for which the “hydrolysis score” value (37° C.) is on record as 0 (a score of 0 if no trace of the product of hydrolysis was seen after 8 hours of incubation) and the “hydrolysis score” value (45° C.) is listed as 0 (a score of 0 if no trace of the product of hydrolysis was seen after 8 hours of incubation).
Ac-GATSHSKFL-NH2 [TSHS]: the “hydrolysis score” value is 0 (a score of 0 if no trace of the product of hydrolysis was seen after 8 hours of incubation) (37° C.) and 0 (a score of 0 if no trace of the product of hydrolysis was seen after 8 hours of incubation) (45° C.).
With Ac-GATSHTKFL-NH2 [TSHT], the “hydrolysis score” value runs as follows: (37° C.) 0 (a score of 0 if no trace of the product of hydrolysis was seen after 8 hours of incubation); (45° C.) 0 (a score of 0 if no trace of the product of hydrolysis was seen after 8 hours of incubation).
Turning to Ac-GATSHVKFL-NH2 [TSHV], the “hydrolysis score” value runs as follows: (37° C.) 0 (a score of 0 if no trace of the product of hydrolysis was seen after 8 hours of incubation); (45° C.) 0 (a score of 0 if no trace of the product of hydrolysis was seen after 8 hours of incubation).
Turning to Ac-GATSHWKFL-NH2 [TSHW], the “hydrolysis score” value runs as follows: (37° C.) 0 (a score of 0 if no trace of the product of hydrolysis was seen after 8 hours of incubation); (45° C.) 0 (a score of 0 if no trace of the product of hydrolysis was seen after 8 hours of incubation).
With Ac-GATSHYKFL-NH2 [TSHY], the “hydrolysis score” value runs as follows: (37° C.) 0 (a score of 0 if no trace of the product of hydrolysis was seen after 8 hours of incubation); (45° C.) 0 (a score of 0 if no trace of the product of hydrolysis was seen after 8 hours of incubation).
On to Ac-GATTHAKFL-NH2 [TTHA], for which the “hydrolysis score” value runs as follows: (37° C.) 0 (a score of 0 if no trace of the product of hydrolysis was seen after 8 hours of incubation); (45° C.) 0 (a score of 0 if no trace of the product of hydrolysis was seen after 8 hours of incubation).
For the substance Ac-GATTHDKFL-NH2 [TTHD], the “hydrolysis score” value is listed as 0 (a score of 0 if no trace of the product of hydrolysis was seen after 8 hours of incubation) (37° C.) and 0 (a score of 0 if no trace of the product of hydrolysis was seen after 8 hours of incubation) (45° C.).
As to Ac-GATTHEKFL-NH2 [TTHE], the “hydrolysis score” value runs as follows: (37° C.) 0 (a score of 0 if no trace of the product of hydrolysis was seen after 8 hours of incubation); (45° C.) 0 (a score of 0 if no trace of the product of hydrolysis was seen after 8 hours of incubation).
For the substance Ac-GATTHFKFL-NH2 [TTHF], the “hydrolysis score” value is, setting by setting: (37° C.) 0 (a score of 0 if no trace of the product of hydrolysis was seen after 8 hours of incubation); (45° C.) 0 (a score of 0 if no trace of the product of hydrolysis was seen after 8 hours of incubation).
On to Ac-GATTHGKFL-NH2 [TTHG], for which the “hydrolysis score” value runs as follows: (37° C.) 0 (a score of 0 if no trace of the product of hydrolysis was seen after 8 hours of incubation); (45° C.) 0 (a score of 0 if no trace of the product of hydrolysis was seen after 8 hours of incubation).
Regarding Ac-GATTHHKFL-NH2 [TTHH], the “hydrolysis score” value is listed as 0 (a score of 0 if no trace of the product of hydrolysis was seen after 8 hours of incubation) (37° C.) and 0 (a score of 0 if no trace of the product of hydrolysis was seen after 8 hours of incubation) (45° C.).
Turning to Ac-GATTHIKFL-NH2 [TTHI], the “hydrolysis score” value is listed as 0 (a score of 0 if no trace of the product of hydrolysis was seen after 8 hours of incubation) (37° C.) and 0 (a score of 0 if no trace of the product of hydrolysis was seen after 8 hours of incubation) (45° C.).
As for Ac-GATTHKKFL-NH2 [TTHK], the “hydrolysis score” value is listed as 0 (a score of 0 if no trace of the product of hydrolysis was seen after 8 hours of incubation) (37° C.) and 0 (a score of 0 if no trace of the product of hydrolysis was seen after 8 hours of incubation) (45° C.).
Ac-GATTHLKFL-NH2 [TTHL]: the “hydrolysis score” value reads like this: (37° C.) 0 (a score of 0 if no trace of the product of hydrolysis was seen after 8 hours of incubation); (45° C.) 0 (a score of 0 if no trace of the product of hydrolysis was seen after 8 hours of incubation).
In the case of Ac-GATTHMKFL-NH2 [TTHM], the “hydrolysis score” value (37° C.) is 0 (a score of 0 if no trace of the product of hydrolysis was seen after 8 hours of incubation) and the “hydrolysis score” value (45° C.) is listed as 0 (a score of 0 if no trace of the product of hydrolysis was seen after 8 hours of incubation).

Source of the values: patent US8969516B2, “Method of hydrolysis of peptide bond” (priority 2006, dated 2015).
